Where two headings read alike, the source gives them in different places. Starred links: 1 amine or outer side, 2 acyl side, 3 side chain; linkers in the order of their positions; H or OH if unused. Non-standard residues stand in square brackets, D forms with d. Residues, ends and D or L forms follow the SMILES beside them. *: point of attachment. X1 = O=C(CCCC[C@@H]1SC[C@@H]2NC(=O)N[C@@H]21)NCCCOCCOCCOCCCN*; pT = C[C@@H](OP(=O)(O)O)[C@H](N)C(=O)O; Suc = O=C(CCC(=O)[*:2])[*:1]
Assays:
[1] = biological target: T1, 14-3-3β (Homo sapiens, UniProt P31946); assay: biochemical; assay type: binding
T1 construct: cDNAs encoding other full-length 14-3-3 isoforms β, τ, η, and σ were obtained as codon-optimized; made in house; host or cells: E. coli BL21(DE3)
T1 sequence (P31946 1-246): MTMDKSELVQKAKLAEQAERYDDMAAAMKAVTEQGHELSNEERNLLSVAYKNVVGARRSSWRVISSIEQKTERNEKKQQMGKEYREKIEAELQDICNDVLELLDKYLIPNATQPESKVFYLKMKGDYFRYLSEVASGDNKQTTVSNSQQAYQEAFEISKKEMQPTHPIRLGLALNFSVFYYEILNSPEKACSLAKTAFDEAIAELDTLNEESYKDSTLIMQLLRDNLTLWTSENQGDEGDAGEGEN
Experimental: (§1) The seven full-length human 14-3-3 isoforms, produced as fusions to a maltose-binding protein (MBP), were analyzed for their interaction with four phospho-PBMs from E6 proteins of HPV types 16, 18, 33, and 35 belonging to subgroups 1 and 2 (as defined in Supplementary Fig. 1). For comparison, we also measured two non-viral phospho-PBMs originating from protein kinase RSK1[28]. We used a competitive fluorescence polarization (FP) assay that measures the displacement of a fluorescent tracer phosphopeptide (here, derived from the HSPB6 protein) bound beforehand to 14-3-3, by an increasing amount of the peptide of interest.
(§2) For affinity measurements, full-length human 14-3-3 constructs with an N-terminal MBP fusion were used. Plasmids containing the cDNAs of the full-length 14-3-3 isoforms ε, γ, and ζ were received from Prof. Lawrence Banks. cDNAs encoding other full-length 14-3-3 isoforms β, τ, η, and σ were obtained as codon-optimized for E. coli expression synthetic genes from IDT Technologies (Coralville, Iowa, USA). All 14-3-3 isoforms were fused via a three-alanine linker to the C terminus of a mutant MBP carrying the following amino acid substitutions facilitating crystallization: D83A, K84A, K240A, E360A, K363A, and D364A[62]. All resulting clones were verified by sequencing. The MBP-fused proteins were expressed in E. coli BL21(DE3) with IPTG induction. Proteins were affinity purified on an amylose column and were further purified by ion-exchange chromatography (HiTrap Q HP, GE Healthcare). Unfused 14-3-3 isoforms devoid of the flexible C-terminal tails (14-3-3βΔC, 14-3-3τΔC 14-3-3εΔC) were expressed using IPTG induction and purified by subtractive IMAC and SEC[40]. Protein concentrations were determined by UV spectroscopy. The samples were supplemented with glycerol and TCEP before aliquoting and freezing in liquid nitrogen.
(§3) Unless otherwise stated, all phosphopeptide-binding measurements were performed using full-length 14-3-3 proteins fused to the C terminus of MBP, favoring optimal solubility and a standardized parallel purification scheme.
(§4) FP was measured with a PHERAstar (BMG Labtech, Offenburg, Germany) microplate reader by using 485 ± 20 and 528 ± 20 nm band-pass filters (for excitation and emission, respectively). In direct FP measurements, a dilution series of the 14-3-3 protein was prepared in 96-well plates (96-well skirted PCR plate, 4ti-0740, 4titude, Wotton, UK) in a 20 mM HEPES pH 7.5 buffer containing 150 mM NaCl, 0.5 mM TCEP, 0.01% Tween 20, 50 nM fluorescently labeled fpB6 peptide, and 100 μM FSC, if indicated. The volume of the dilution series was 40 μl, which was later divided into three technical replicates of 10 μl upon transferring to 384-well micro-plates (low binding microplate, 384 well, E18063G5, Greiner Bio-One, Kremsmünster, Austria). In total, polarization of the probe was measured at eight different protein concentrations (whereas one contained no protein and corresponded to the free peptide). In competitive FP measurements, the same buffer was supplemented with the protein to achieve a complex formation of 60–80%, based on the direct titration. Then, this mixture was used for creating a dilution series of the unlabeled competitor (i.e., the studied peptides) and the measurement was carried out identically as in the direct experiment.
(§5) All FP experiments were done in triplicates. Analysis of FP experiments were carried out using ProFit, an in-house developed, Python-based fitting program. ProFit utilizes a Monte Carlo approach to take into account experimental variability. It generates hundreds of simulated datasets, based on the experimental data variance and fits direct and competitive measurements in pairs.

[2] = biological target: T2, 14-3-3γ (Homo sapiens, UniProt P61981); assay: biochemical; assay type: binding
T2 construct: full-length human 14-3-3 constructs with an N-terminal MBP fusion were used; made in house; host or cells: E. coli BL21(DE3)
T2 sequence (P61981 1-247): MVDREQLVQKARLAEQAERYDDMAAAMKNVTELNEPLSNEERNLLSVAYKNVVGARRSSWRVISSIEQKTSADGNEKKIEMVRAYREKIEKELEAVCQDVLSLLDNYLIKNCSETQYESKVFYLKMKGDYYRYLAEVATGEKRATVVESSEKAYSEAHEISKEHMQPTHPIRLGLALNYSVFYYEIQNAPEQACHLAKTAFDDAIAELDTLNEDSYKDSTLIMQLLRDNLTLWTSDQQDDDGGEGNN
Experimental: as §1, §2, §3, §4, §5

[3] = biological target: T3, 14-3-3ε (Homo sapiens, UniProt P62258); assay: biochemical; assay type: binding
T3 construct: Plasmids containing the cDNAs of the full-length 14-3-3 isoforms ε, γ, and ζ were received; made in house; host or cells: E. coli BL21(DE3)
T3 sequence (P62258 1-255): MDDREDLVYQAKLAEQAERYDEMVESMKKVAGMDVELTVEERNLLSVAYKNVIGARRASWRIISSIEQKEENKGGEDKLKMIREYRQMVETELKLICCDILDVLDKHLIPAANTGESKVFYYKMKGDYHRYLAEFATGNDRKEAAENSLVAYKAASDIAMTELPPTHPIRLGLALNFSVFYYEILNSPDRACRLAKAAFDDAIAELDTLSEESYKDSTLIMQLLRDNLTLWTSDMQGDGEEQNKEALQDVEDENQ
Experimental: as §1, §2, §3, §4, §5

[4] = biological target: T4, 14-3-3ζ (Homo sapiens, UniProt P63104); assay: biochemical; assay type: binding
T4 construct: Plasmids containing the cDNAs of the full-length 14-3-3 isoforms ε, γ, and ζ were received; made in house; host or cells: E. coli BL21(DE3)
T4 sequence (P63104 1-245): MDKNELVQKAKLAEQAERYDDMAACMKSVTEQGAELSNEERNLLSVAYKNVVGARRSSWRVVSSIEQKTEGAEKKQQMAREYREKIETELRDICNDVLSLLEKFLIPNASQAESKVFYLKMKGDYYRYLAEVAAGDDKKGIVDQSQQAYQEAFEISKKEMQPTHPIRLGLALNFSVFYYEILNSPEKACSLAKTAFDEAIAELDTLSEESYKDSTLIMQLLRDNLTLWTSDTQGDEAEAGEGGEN
Experimental: as §1, §2, §3, §4, §5

[5] = biological target: T5, 14-3-3η (Homo sapiens, UniProt Q04917); assay: biochemical; assay type: binding
T5 construct: cDNAs encoding other full-length 14-3-3 isoforms β, τ, η, and σ were obtained as codon-optimized; made in house; host or cells: E. coli BL21(DE3)
T5 sequence (Q04917 1-246): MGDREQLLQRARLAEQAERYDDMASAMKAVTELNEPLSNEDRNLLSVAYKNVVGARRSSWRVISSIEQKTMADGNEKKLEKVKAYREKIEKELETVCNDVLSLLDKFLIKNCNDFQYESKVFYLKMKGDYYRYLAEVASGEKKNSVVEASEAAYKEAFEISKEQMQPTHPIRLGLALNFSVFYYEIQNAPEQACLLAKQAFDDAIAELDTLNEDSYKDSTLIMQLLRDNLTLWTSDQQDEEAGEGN
Experimental: as §1, §2, §3, §4, §5

[6] = biological target: T6, 14-3-3σ (Homo sapiens, UniProt P31947); assay: biochemical; assay type: binding
T6 construct: cDNAs encoding other full-length 14-3-3 isoforms β, τ, η, and σ were obtained as codon-optimized; made in house; host or cells: E. coli BL21(DE3)
T6 sequence (P31947 1-248): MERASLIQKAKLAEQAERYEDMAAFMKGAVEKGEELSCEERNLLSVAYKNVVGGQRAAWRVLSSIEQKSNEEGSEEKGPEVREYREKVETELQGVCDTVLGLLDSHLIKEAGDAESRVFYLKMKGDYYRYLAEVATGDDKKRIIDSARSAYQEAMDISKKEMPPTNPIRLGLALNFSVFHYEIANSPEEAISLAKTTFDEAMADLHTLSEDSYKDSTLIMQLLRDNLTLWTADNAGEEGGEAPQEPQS
Experimental: as §1, §2, §3, §4, §5

[7] = biological target: T7, 14-3-3τ (Homo sapiens, UniProt P27348); assay: biochemical; assay type: binding
T7 construct: cDNAs encoding other full-length 14-3-3 isoforms β, τ, η, and σ were obtained as codon-optimized; made in house; host or cells: E. coli BL21(DE3)
T7 sequence (P27348 1-245): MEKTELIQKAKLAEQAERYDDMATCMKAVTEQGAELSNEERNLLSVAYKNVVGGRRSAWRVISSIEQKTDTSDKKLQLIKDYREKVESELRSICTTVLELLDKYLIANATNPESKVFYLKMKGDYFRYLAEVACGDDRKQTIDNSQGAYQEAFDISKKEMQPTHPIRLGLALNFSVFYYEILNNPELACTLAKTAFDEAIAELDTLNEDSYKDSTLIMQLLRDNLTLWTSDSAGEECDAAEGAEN
Experimental: as §1, §2, §3, §4, §5

[8] = biological target: 14-3-3 isoforms; conditions: Figure 4 panel a, literature-curated motifs, unit from the colour scale line, cited from earlier work

Molecule `CC(C)[C@H](NC(=O)[C@H](C)NC(=O)[C@@H](NC(=O)[C@H](CCC(=O)O)NC(=O)[C@H](CCCNC(=N)N)NC(=O)[C@H](CCCNC(=N)N)NC(=O)[C@H](CCCNC(=N)N)NC(=O)[C@@H]1CCCN1C(=O)[C@H](CCCCN)NC(=O)[C@H](CO)NC(=O)CCC(=O)NCCCOCCOCCOCCCNC(=O)CCCC[C@@H]1SC[C@@H]2NC(=O)N[C@@H]21)[C@@H](C)OP(=O)(O)O)C(=O)O` [pHPV35E6T-6R, E-1A] ({X1-Suc}-SKPRRRE[pT]AV-OH) has a Kd [1] of 7.1 ± 0.5 µM, a Kd [2] of 3.3 ± 0.2 µM and a Kd [3] of 13 ± 2 µM. The Kd [4] was 7.3 ± 0.4 µM, the Kd [5] was 4.8 ± 0.5 µM and the Kd [6] was 18.9 ± 1.9 µM. It also gave a Kd [7] of 5.8 ± 0.4 µM.

For “C-Raf254-264 (RQRSTSTPNVH; UniProt P04049 254-264, looked up, fragment)”, the Kd ([8]; 14-3-3β, read-out: Binding affinities (KD) of various 14-3-3-binding motifs, 14-3-3β) is listed as 9.5 µM, the Kd ([8]; 14-3-3γ, read-out: Binding affinities (KD) of various 14-3-3-binding motifs, 14-3-3γ) is listed as 3.7 µM and the Kd ([8]; 14-3-3ε, read-out: Binding affinities (KD) of various 14-3-3-binding motifs, 14-3-3ε) is listed as 15.1 µM. The Kd ([8]; 14-3-3ζ, read-out: Binding affinities (KD) of various 14-3-3-binding motifs, 14-3-3ζ) was 16.6 µM, the Kd ([8]; 14-3-3η, read-out: Binding affinities (KD) of various 14-3-3-binding motifs, 14-3-3η) was 6.3 µM and the Kd ([8]; 14-3-3σ, read-out: Binding affinities (KD) of various 14-3-3-binding motifs, 14-3-3σ) was 67.1 µM. The Kd ([8]; 14-3-3τ, read-out: Binding affinities (KD) of various 14-3-3-binding motifs, 14-3-3τ) was 26.6 µM.
